Data reported in ChEMBL document CHEMBL1140832, “Antimitotic quinoid triterpenes from Maytenus chuchuhuasca” (Bioorg Med Chem Lett, 2008).
Activity calls are given as the source filed them. The calls are words filed in the database; no cut-off is given here.

Tests used:
[1] = Inhibition of tubulin polymerization at 100 uM
[2] = Inhibition of tubulin polymerization
RPMI-8226 = assay: Growth inhibition of human RPMI8226 cells; type: functional, cell-based

| SMILES | Activity [1] | IC50 [2] [µM] | IC50 (RPMI-8226) [µM] |
| --- | --- | --- | --- |
| COC(=O)[C@]1(C)CC[C@]2(C)CC[C@]3(C)C4=CC(=O)c5c(cc(O)c(O)c5C)[C@]4(C)CC[C@@]3(C)[C@@H]2C1 | inactive | – | – |
| COc1c(O)cc2c(c1C)C(=O)C=C1[C@@]2(C)CC[C@@]2(C)[C@@H]3C[C@@H](C)C(=O)C[C@]3(C)CC[C@]12C | inactive | – | – |
| CC1=C(O)C(=O)C=C2C1=CC=C1[C@@]2(C)CC[C@@]2(C)[C@@H]3C[C@](C)(C(=O)O)CC[C@]3(C)CC[C@]12C [CELASTROL] | – | 2 | 3 |
| COC(=O)[C@]1(C)CC[C@]2(C)CC[C@]3(C)C4=CC=C5C(=CC(=O)C(O)=C5C)[C@]4(C)CC[C@@]3(C)[C@@H]2C1 [PRISTIMERIN] | – | 8 | 16.6 |
| CC1=C(O)C(=O)C=C2C1=CC=C1[C@@]2(C)CC[C@@]2(C)[C@@H]3C[C@@H](C)C(=O)[C@@H](O)[C@]3(C)CC[C@]12C [TINGENIN B] | – | 12 | 18.3 |
| CC1=C(O)C(=O)C=C2C1=CC=C1[C@@]2(C)CC[C@@]2(C)[C@@H]3C[C@@H](C)C(=O)C[C@]3(C)CC[C@]12C [TINGENONE] | – | 8 | 7 |
| CC[C@]1(O)C[C@@H]2CN(CCc3c([nH]c4ccccc34)[C@@](C(=O)OC)(c3cc4c(cc3OC)N(C)[C@H]3[C@@](O)(C(=O)OC)[C@H](OC(C)=O)[C@]5(CC)C=CCN6CC[C@]43[C@@H]65)C2)C1 [VINBLASTINE] | – | 1 | 0.028 |
